Test results: patent US12504431B2, “Biomarkers for a therapy comprising a sorafenib compound” (Eisai R&D Management Co., Ltd., priority 2018, dated 2025)
Counter-ions that a name gives are not always drawn.

Key:
[1] = test system: Human FGF21-transfected HCC PLC/PRF/5 cells (FGF21-TF); assay: Antitumor activity in FGF21-TF tumor xenograft model in mice; format: in vivo, female nude mice; conditions: LEN 10 mg/kg and 30 mg/kg, SOR 30 mg/kg, orally once daily; FIG. 1
Source text: (§1) Methods: Human FGF21 and Mock-transfected HCC PLC/PRF/5 cells (FGF21-TF and Mock-TF, respectively) were established by using piggy-back system. To evaluate antitumor activity against these tumors, 4.2×10^6 cells of FGF21-TF or 4.3×10^6 cells of Mock-TF were subcutaneously injected into female nude mice (Charles River, Japan) with matrigel (BD Biosciences). When tumor volumes reached approximately 200-300 mm3, mice were divided into each group according to their tumor volumes and either lenvatinib mesylate (abbreviated as LEN) (10 mg/kg and 30 mg/kg) or Sorafenib tosylate (abbreviated as SOR) (30 mg/kg) was orally administered once daily. Follow-up analysis of a HCC patient-derived xenograft (PDX)-derived tumor (LI0334 HCC PDX tumor model treated with 3 mM HCl (vehicle for lenvatinib)) assessed FGF21 expression levels by immunohistochemistry. Three μm thick sections of paraffin-embedded tumor samples were de-paraffinized and hydrated. Antigen retrieval was performed by incubation of the samples in Dako REAL Target Retrieval sol. (pH6.0) (Dako) for 30 minutes. Endogenous hydrogen peroxidase activity was blocked by incubating the slides for 10 min with 3% hydrogen peroxide. The slides were incubated overnight with primary antibody, human rabbit anti-human FGF21 (ab64857. Abcam) at 1:100 in 1% BSA/PBS at 4° C. […]

[2] = test system: Mock-transfected HCC PLC/PRF/5 cells (Mock-TF); assay: Antitumor activity in Mock-TF tumor xenograft model in mice; format: in vivo, female nude mice; conditions: LEN 10 mg/kg and 30 mg/kg, SOR 30 mg/kg, orally once daily; FIG. 1
Source text: as §1

[3] = Relative body weight changes in mice with FGF21-TF and Mock-TF tumors; format: in vivo, female nude mice; conditions: LEN 10 mg/kg and 30 mg/kg, SOR 30 mg/kg, orally once daily; FIG. 2
Source text: as §1

LI0334 HCC PDX tumor = conditions: PDX tumor highly expressing FGF21; reported in Matsuki et al., AACR 2017; cited from earlier work
unresectable HCC = assay: Phase 3 study E7080-G000-304: OS and PFS by baseline serum FGF21 level; format: in vivo, human; conditions: for MST for PFS, high FGF21 group / MST for PFS, low FGF21 group / HR for PFS, high vs low FGF21 group: PFS by RECIST 1.1 (IIR); for MST for PFS, high FGF21 group / median OS (MST), high FGF21 group: baseline serum FGF21 at or above third quartile cutoff (688 ng/L); for MST for PFS, low FGF21 group / median OS (MST), low FGF21 group: baseline serum FGF21 below third quartile cutoff (688 ng/L); for HR for PFS, high vs low FGF21 group / HR for OS, high vs low FGF21 group: univariate Cox regression, third quartile cutoff (688 ng/L); for difference of PFS (RECIST 1.1) between high and low baseline FGF21 groups: third quantile cutoff point
Description: E7080-G000-304 was a multicenter, randomized, open-label, noninferiority Phase 3 study to compare the efficacy and safety of lenvatinib versus sorafenib as a first-line systemic treatment in subjects with unresectable HCC. Subjects were randomly assigned in a 1:1 ratio to treatment with either lenvatinib 12 mg (baseline body weight [BW]≥60 kg) or 8 mg (baseline BW<60 kg) given once daily (QD) orally or sorafenib 400 mg given twice daily (BID) orally. Subjects were stratified by region, presence or absence of macroscopic portal vein invasion (MPVI) or extrahepatic spread (EHS) or both, Eastern Cooperative Oncology Group Performance Status (ECOG PS) 0 or 1, and BW (<60 kg or ≥60 kg). A total of 951 subjects (476 lenvatinib; 475 sorafenib) were enrolled and treated. Lenvatinib and sorafenib were self-administered by the subjects orally, at the same time each day (consistently either with or without food) in continuous 28-day cycles. Subjects received study treatment until disease progression, development of unacceptable toxicity, subject request, or withdrawal of consent.
Of the 954 subjects enrolled in the clinical study and assigned to receive lenvatinib or sorafenib, 407 subjects (42.7% of all ITT subjects, lenvatinib arm, n=279 and sorafenib arm, n=128) were included in blood serum biomarker assay.
Serum samples were collected at Day 1 of Cycle1 (pre-treatment). The serum levels of FGF21 at Day 1 of Cycle 1 (baseline level) in Samples from 279 subjects in the lenvatinib arm and 128 subjects in the sorafenib arm (total 407 subjects) were determined by enzyme-linked immunosorbent assay (ELISA). All biomarker data were transferred to study data tabulation model (SDTM) in accordance with the data transfer specification developed separately. Correlation between the serum baseline level of FGF21 and clinical outcome, such as progression free survival (PFS) was assessed. PFS was defined as the time from the date of randomization to the date of first documentation of disease progression or death.
All statistical analyses were performed by the Clinical Data Science department at Eisai Co., Ltd. (Tokyo, Japan) after the clinical study was completed and a snapshot of the database was obtained on 13 Nov. 2016. For the correlation analyses with PFS, data sets based on independent imaging review (IIR) by RECIST 1.1 were used. Statistical analyses were performed using SAS version 9.3.
For each baseline level of blood serum biomarker, correlation analysis with survival outcome measures (OS and PFS) was performed using univariate Cox regression for the lenvatinib arm and the sorafenib arm separately.
Subjects were divided into two high-low groups based on the baseline level of each blood serum biomarker. The cutoff point was third quartile. Association between the groups and survival outcome measures (OS and PFS) was explored using univariate Cox regression and the Log-rank test with the selected cutoff points.

Structure (SMILES) | antitumor activity (tumor volume changes) in the FGF21-TF model [1] | antitumor activity (tumor volume changes) in the Mock-TF model [2] | body weight losses associated with tumor presence compared to non-treatment [3] | inhibition of the LI0334 HCC PDX tumor model (LI0334 HCC PDX tumor) | MST for PFS, high FGF21 group (unresectable HCC) | MST for PFS, low FGF21 group (unresectable HCC) | HR for PFS, high vs low FGF21 group (unresectable HCC) | median OS (MST), high FGF21 group (unresectable HCC) [months] | median OS (MST), low FGF21 group (unresectable HCC) [months] | difference of PFS (RECIST 1.1) between high and low baseline FGF21 groups (unresectable HCC) | HR for OS, high vs low FGF21 group (unresectable HCC)
COc1cc2nccc(Oc3ccc(NC(=O)NC4CC4)c(Cl)c3)c2cc1C(N)=O [LEN, lenvatinib mesylate] | showed activity | showed antitumor activity | Neither treatment exacerbated body weight losses | inhibited by LEN |  |  |  |  |  |  | 
COc1cc2nccc(Oc3ccc(NC(=O)NC4CC4)c(Cl)c3)c2cc1C(N)=O [Lenvatinib, 4-(3-chloro-4-(cyclopropylaminocarbonyl)aminophenoxy)-7-methoxy-6-quinolinecarboxamide] |  |  |  |  | 7.5 | 8.0 | 1.184 | 10.9 | 18.0 | no clear difference of PFS | 1.745
CNC(=O)c1cc(Oc2ccc(NC(=O)Nc3ccc(Cl)c(C(F)(F)F)c3)cc2)ccn1 [SOR, Sorafenib tosylate] | only LEN showed activity | showed antitumor activity | Neither treatment exacerbated body weight losses |  |  |  |  |  |  |  | 
CNC(=O)c1cc(Oc2ccc(NC(=O)Nc3ccc(Cl)c(C(F)(F)F)c3)cc2)ccn1 [Sorafenib, 4-[4-[[4-chloro-3-(trifluoromethyl)phenyl]carbamoylamino]phenoxy]-N-methylpyridine-2-carboxamide] |  |  |  |  | 2.4 | 5.5 | 1.783 | 6.8 | 17.8 | short median PFS (RECIST 1.1) for high group than that of low group | 3.341
